According to patent publication US20070043512A1, “Therapeutic and prophylactic compositions and uses therefor” (priority 2003, published 2007):
Values joined by “and” are separate entries in the source; they are usually repeats but may differ in a detail not shown here. Identical values can stand only once. “Also recorded” adds a separate entry of the source.

What was measured:
Assay type in all cases: cell-based, human
[1] = tested on: aP2 gene expression; assay: Real-time PCR, aP2 gene expression in NHBE cells; settings: NHBE (HBE) cells, subsequent experiment
[2] = tested on: aP2 gene expression; assay: Real-time PCR, aP2 gene expression in NHBE cells; settings: for Effect on aP2 expression: NHBE (HBE) cells, stimuli for 18 h, real-time PCR (FIG. 2); for Fold-Change aP2 gene expression (real-time PCR): NHBE cells, 10 ng/ml cytokine, 18 h, vs unstimulated, mean of two RNA sets used in arrays
Experimental: (§1) When NHBE cells were 80% confluent and between passage 7 and 8, they were washed in PBS (Gibco) and starved for 24 h in Clonetics bronchial epithelial cell basal medium (BEBM) containing 0.1% w/v BSA.
(§2) Total RNA was isolated from cells using the RNeasy Total RNA Isolation Kit (Qiagen, Chatswort, Calif.) or Trizol (Invitrogen, CA) as per the manufacturer's instructions.
(§3) cDNA was made using Reverse-IT RTase Blend Kit (ABgene, UK) or Avian myeloblastosis virus Reverse Transcriptase (Promega, Madison, Wis.) according to manufacturer's instructions. Oligo-p(dt)15 primer (Roche Molecular Biochemicals) was used at 1 μM in both cDNA preparation methods. Following cDNA synthesis, 1 μl of cDNA template was used for each PCR. Real-time PCR was conducted using Light Cycler-FastStart DNA Master SYBR Green I kit (Roche Molecular Biochemicals) according to manufacturer's specifications using 2 mM MgCl2 and 1 μM primers. Human aP2 forward and reverse primers and FABP-5 forward and primers were designed from Genbank sequences using Primer3 software (Rozen and Skaletsky, Methods Mol. Biol. 132: 365-386, 2000):
(§4) After an initial denaturation for 10 min at 95° C., the samples were run for 40 cycles at 95° C. (15 s), 63° C. (5 s), and 72° C. (10 s). At the end of each cycle, the fluorescence was measured in a single step in channel F1. After the 40th cycle, the specimens were heated to 95° C. and cooled to 65° C. for 15 s. All heating and cooling steps were performed with a slope of 20° C./sec. The temperature was then raised to 95° C. at a rate of 0.1° C./sec and fluorescence was measured continuously (channel F1) to obtain a melting curve for the PCR products. Each gene was normalized to a housekeeping gene GAPDH before fold change was calculated (using crossing point values) to account for variations between different samples. The aP2 PCR product was confirmed by size on a 2% w/v agarose gel and by sequencing at Sydney University Prince Alfred Macromolecular Analysis Centre, NSW, Australia.
Using the same RNA samples as were used for the microarray experiments, aP2 gene expression was analysed using real-time PCR. […] Data are the mean from the two sets of RNA that were used in the array experiments.

[3] = tested on: FABP-5 gene expression; assay: Microarray, FABP-5 gene expression in synovial fibroblasts (RA/OA synoviocytes); set-up: key: I, increased; D, decreased; NC, no change; settings: 10 ng/ml, 4 h
[4] = tested on: FABP-5 gene expression; assay: Real-time PCR, FABP-5 (mal1) gene expression in NHBE cells; settings: for Effect on FABP-5 (mal1) expression, real-time PCR: NHBE (HBE) cells, 10 ng/ml (FIG. 3)
Experimental: as §1, §2, §3, §4

[5] = tested on: aP2 expression; assay: aP2 expression in THP-1 cells; settings: 10 ng/ml IL-4, 10 ng/ml IL-13 or 28 ng/ml IFN-γ (FIG. 6)
Experimental: FIG. 6 is a graphical representation showing aP2 expression in THP-1 cells stimulated with (A) 10 ng/ml IL-4, 10 ng/ml IL-13 or 28 ng/ml IFN-γ or (B) 50 ng/ml PMA. The data are mean±SEM from three independent experiments.
To address this issue, the effect of IL-4, IL-13 and IFN-γ on expression of aP2 in the human monocyte cell line THP-1 was examined.

[6] = tested on: aP2 gene expression; assay: Affymetrix U95A microarray, aP2 gene expression in stimulated NHBE cells; set-up: key to Regulation of aP2 gene expression: I, increased; D, decreased; NC, no change; settings: 18 h; for Fold-Change aP2 gene expression: NHBE cells, 10 ng/ml cytokine, vs unstimulated cells, mean of both micro-array experiments; for Fold change aP2 gene expression / Regulation of aP2 gene expression: NHBE, 10 ng/ml, vs ctrl, individual array comparisons
Experimental: NHBE primary cell lines were purchased from Clonetics (San Diego, Calif.). Both NHBE cell lines, lot 8F1142 and 7F1482, were isolated […]. NHBE cells were maintained in Clonetics bronchial epithelial growth media (BEGM), which included supplements of 52 μg/ml bovine pituitary extract, 0.5 μg/ml hydrocortisone, 0.5 μg/ml human recombinant epidermal growth factor, 0.5 μg/ml epinephrine, 10 μg/ml transferrin, 5 μg/ml insulin, 0.1 μg/ml retinoic acid, 6.5 μg/ml triiodothryonine, 50 μg/ml gentamycin and 50 μg/ml amphotericin B (Clonetics). Medium was replaced every three to four days. When confluent, cells were subcultured at a ratio of 1:3.
as §1
A preliminary time course experiment in IL-4 and IL-13 stimulated NHBE identified 18 h as a time point associated with strong gene regulation and this time point was selected for subsequent analysis. Gene expression in unstimulated- and IL-4- and IL-13-stimulated NHBE was measured using Affymetrix U95A Gene Chips. The experiment was performed twice, using two independent NHBE lines. One novel finding was increased expression of the adipocyte gene aP2 in the cytokine stimulated NHBE cells (Table 3).
NHBE cells were stimulated with 10 ng/ml IL-4 or 10 ng/ml IL-13. After 18 h, gene expression in these cells, and in unstimulated NHBE cells, was analysed using Affymetrix U95A chips. The fold-change in gene expression following cytokine stimulation compared to unstimulated NHBE cells is shown. Data are the mean of both micro-array experiments.
(§5) Depending on the quantity of RNA available, cRNA was prepared according to the GeneChip Expression Analysis Technical Manual (Array experiment 1; Affymetrix, Santa Clara, Calif.) or the cRNA methods published in Baugh et al., Nucleic Acids Res. 29(5): E29, 2001 (Array experiment 2). The GeneChip Expression Analysis protocol involved cDNA synthesis from 20 μg of total RNA using a poly(T) primer containing a T7 RNA polymerase promoter (Geneworks, Australia):
(§6) cRNA was transcribed from cDNA and biotinylated using the BioArray High Yield RNA Transcript Labeling Kit (Enzo Diagnostics, Farmingdale, N.Y.). Twenty micrograms of cRNA was fragmented by heating at 94° C. for 35 min in fragmentation buffer (40 mM Tris acetate (pH 8.1), 125 mM KOAc, 30 mM MgOAc) prior to hybridization. For the small-scale cRNA amplification (Baugh et al., 2001, supra), cDNA synthesis volumes were different from the GeneChip Expression Analysis Technical Manual but reaction component concentrations, incubation times and temperatures were conserved. Five hundred nanograms of RNA was used and 15 μg cRNA was fragmented prior to hybridization.
(§7) Hybridization cocktails were then made by adding fragmented cRNA, control cRNAs, grid alignment oligonucleotides and blocking reagents. These mixtures were hybridised overnight (˜16 h) to individual Test3 (Affymetrix) arrays at 45° C., under constant rotation at 60 rpm. Washing and staining of the hybridized arrays were performed by an Affymetrix Fluidics Station, according to the manufacturer's protocols. Fluorescent signals were measured on the arrays using the Agilent GeneArray Laser Scanner and gene transcript levels were determined and scaled to 150 using algorithms in MicroArray Analysis Suite Software 5.0 (Affymetrix). For each array experiment, the hybridization cocktails met the test three criteria (background less then 150, GAPDH and β-actin 3′/5′ ratios less then three and similar scaling factors between samples), and were used to probe Affymetrix U95A GeneChips. Relative mRNA expression levels on the IL-4 and IL-13 stimulated NHBE arrays were expressed as plus or minus fold changes when compared to the control NHBE array.
Regulation of aP2 gene expression was examined for all comparison arrays in which aP2 expression was detected. […]

[7] = tested on: FABP-5 gene expression; assay: Microarray, FABP-5 gene expression in NHBE cells; set-up: key to Regulation of FABP-5 gene expression: I, increased; D, decreased; NC, no change; settings: for Effect on FABP-5 (mal1) expression, microarray: NHBE (HBE) cells; for Fold change FABP-5 gene expression / Regulation of FABP-5 gene expression: NHBE, 10 ng/ml, 18 h, vs ctrl
Experimental: as §1, §5, §6, §7
Positive/negative fold change indicates greater/lesser gene expression in the first-named array, respectively. I, increased; D, decreased; NC, no change. Where the same type of array comparison is listed more than once, this represents repeat experiments.

[8] = tested on: FABP-5 gene expression; assay: Microarray, FABP-5 gene expression in bronchial smooth muscle cells (BSMC); set-up: key to Regulation of FABP-5 gene expression: I, increased; D, decreased; NC, no change; settings: 10 ng/ml, 18 h, vs ctrl
[9] = tested on: aP2 protein expression; assay: Immunofluorescent staining of aP2 protein in NHBE cells; settings: NHBE (HBE) cells, 10 ng/ml, 24 h
Experimental: NHBE cells were grown in chamber slides and treated with culture medium alone, or with medium supplemented with 10 ng/ml IL-4 or 10 ng/ml IL-13. After 24 h, the culture medium was removed and the cells were air-dried for 30 min. The cells were fixed in 1% v/v paraformaldehyde for 20 min at room temperature. The slides were washed in PBS and the cells were permeabilised in 70% v/v ethanol at −20° C. for 20 min. The cells were washed in PBS-Triton for 5 min, and then blocked for 60 min with 10% v/v normal goat serum in 2% v/v BSA/Tris-buffered saline (TBS). The normal goat serum was removed and […] (1:1000 dilution in 2% BSA/TBS) or rabbit isotype control (1:4 dilution; Zymed) was added. The slides were incubated overnight at room temperature, washed 3×5 min in TBS-Triton (TBS-T), and incubated with secondary Ab (TRITC-conjugated anti-rabbit Ig; dilution 1:100) for 1 h at room temperature. The slides were washed in TBS-T for 5 min, and cover-slipped after the addition of Vectashield. The slides were examined on a confocal microscope.

In the case of `Cc1cccc(Nc2cc(Cl)nc(SCC(=O)O)n2)c1C` [WY14643], the “Effect on aP2 expression” value [1] is reported as “little or no effect”.

TNFα was tested, and the “Effect on aP2 expression” value [2] was “no effect”, the “Regulation of FABP-5 gene expression” value ([3]; OA synoviocytes, vs OA ctrl) was “NC” and the “Regulation of FABP-5 gene expression” value ([3]; RA synoviocytes, vs RA ctrl) was “NC”.

“IL-1: cytokine Interleukin (IL)-1β used as stimulus, 10 ng/ml” was tested, and the “Effect on aP2 expression” value [2] was “no effect” and the “Regulation of FABP-5 gene expression” value ([3]; RA synoviocytes, vs RA ctrl) was “NC”.

In the case of “IFN-γ: prototypic type 1 cytokine, 28 ng/ml”, the “Effect on aP2 expression” value [2] is reported as “strongly down-regulated”, the “Effect on aP2 expression” value ([2]; listed as IFNg) is reported as “down-regulated” and the “Effect on aP2 expression” value ([2]; listed as IFNγ) is reported as “strongly downregulated”. For the same molecule, the “Effect on mal1 expression” value ([4]; HBE cells, summary statement, method not stated) was “down-regulated” and the “Effect on aP2 expression” value [5] was “reduced expression”.

With `CCCCCCCCCCCCCC(=O)O[C@@H]1[C@@H](C)[C@@]2(O)[C@@H](C=C(CO)C[C@]3(O)C(=O)C(C)=C[C@@H]23)[C@@H]2C(C)(C)[C@]12OC(C)=O` [PMA, phorbol myristate acetate, reference compound] the “Effect on aP2 expression” value [2] was “slight down-regulation; also recorded: slight downregulation”.

With IL-6: cytokine stimulus, 5 ng/ml (BD) the “Effect on aP2 expression” value [2] was “no effect”.

With “IL-13: allergy-associated type-2 cytokine used as stimulus, 10 ng/ml (BD)” the “Fold-Change aP2 gene expression” value [6] was 31.8, the “Fold change aP2 gene expression” value [6] was 45.3 and 18.4 and the “Regulation of aP2 gene expression” value [6] was “I”. For the same molecule, the “Fold-Change aP2 gene expression (real-time PCR)” value [2] was 56, the “Effect on FABP-5 (mal1) expression, microarray” value [7] was “mildly up-regulated” and the “Fold change FABP-5 gene expression” value [7] was 1.5. For the same molecule, the “Regulation of FABP-5 gene expression” value [7] was “I and NC”, the “Fold change FABP-5 gene expression” value [8] was 1.7 and the “Regulation of FABP-5 gene expression” value [8] was “NC and I”. The “Effect on FABP-5 (mal1) expression, real-time PCR” value [4] was “up-regulated; also recorded: upregulated”, the “Intensity of aP2 staining vs unstimulated cells” value [9] was “considerably greater” and the “Nuclear localisation of aP2” value [9] was “significant nuclear localisation”. For the same molecule, the “Effect on aP2 expression” value [5] was “stimulated aP2 expression”.

For “IL-4: allergy-associated type-2 cytokine used as stimulus, 10 ng/ml (BD)”, the “Fold-Change aP2 gene expression” value [6] was 33.4, the “Fold change aP2 gene expression” value [6] was 48.5 and 18.4 and the “Regulation of aP2 gene expression” value [6] was “I”. For the same molecule, the “Fold-Change aP2 gene expression (real-time PCR)” value [2] was 65, the “Effect on FABP-5 (mal1) expression, microarray” value [7] was “mildly up-regulated” and the “Fold change FABP-5 gene expression” value [7] was 1.4 and 2. For the same molecule, the “Regulation of FABP-5 gene expression” value [7] was “I”, the “Regulation of FABP-5 gene expression” value ([3]; RA synoviocytes, vs RA ctrl) was “NC” and the “Effect on FABP-5 (mal1) expression, real-time PCR” value [4] was “up-regulated; also recorded: upregulated”. The “Intensity of aP2 staining vs unstimulated cells” value [9] was “considerably greater”, the “Nuclear localisation of aP2” value [9] was “significant nuclear localisation” and the “Effect on aP2 expression” value [5] was “stimulated aP2 expression”.

B1: IL-10: cytokine stimulus, 10 ng/ml (BD) (protein, UniProt P22301 19-178, looked up)
Interleukin-10: SPGQGTQSENSCTHFPGNLPNMLRDLRDAFSRVKTFFQMKDQLDNLLLKESLLEDFKGYLGCQALSEMIQFYLEEVMPQAENQDPDIKAHVNSLGENLKTLRLRLRRCHRFLPCENKSKAVEQVKNAFNKLQEKGIYKAMSEFDIFINYIEAYMTMKIRN
In the case of B1, the “Effect on aP2 expression” value [2] is reported as “no effect”.
